Laboratory results as given in patent US20240383905A1, “FGFR INHIBITORS AND METHODS OF USE THEREOF” (3H PHARMACEUTICALS CO., LTD., priority 2021, published 2024).

Experiments:
[1] = target: T1, FGFR2 (Homo sapiens, UniProt P21802); assay: FGFR2 Biochemical Caliper Assay (KinEASE-TK kit); details: 0.07 nM FGFR2; compound incubated with protein 10 min, reaction 45 min at RT; read-out: FGFR2 Cliper IC50
T1 construct: purchased Carna 08-134
Description: Compounds of the present invention were tested in a FGFR1, FGFR2, and FGFR3 Biochemical Caliper Assay.
(§1) Enzyme activity was monitored using KinEASE-TK kit (CisBio, Cat.No. 62TK0PEC) according to manufacturer's instructions. […] Final enzyme concentration was 0.2 nM for FGFR1 and FGFR3, 0.07 nM for FGFR2. Compounds were prepared in 10 mM DMSO and serially diluted into 10 concentrations by 3-fold dilution. Prior to the initiation of the reaction by adding TK-substrate/ATP mixture, the compounds were incubated with protein for 10 min at RT. […] Plates were quenched by adding TK-antibody-Cryptate and Sa-XL665 mixture. After 60 min in the stop solution, read the signal on microplate reader (Molecular Devices, i3x), excitation of 320 nm and emission of 615 nm and 665 nm with a […]. IC50 values were calculated using Prism 7 (GraphPad).

[2] = target: T2, FGFR1 (Homo sapiens, UniProt P11362); assay: FGFR1 Biochemical Caliper Assay (KinEASE-TK kit); details: ratio FGFR1/FGFR2 of the biochemical assay
T2 construct: purchased Carna 08-133
Description: as §1, with “Compounds of the present invention were tested in a FGFR1, FGFR2, and FGFR3 Biochemical Caliper Assay. Enzyme” for “Enzyme”

[3] = target: T3, FGFR3 (Homo sapiens, UniProt P22607); assay: FGFR3 Biochemical Caliper Assay (KinEASE-TK kit); details: ratio FGFR3/FGFR2 of the biochemical assay
T3 construct: purchased Carna 08-135
Description: as §1, with “Compounds of the present invention were tested in a FGFR1, FGFR2, and FGFR3 Biochemical Caliper Assay. Enzyme” for “Enzyme”

[4] = test system: SNU16 cells; assay: SNU16 Cancer Cell Line Proliferation Assay (CellTiter-Glo); type: cell-based; details: Homo sapiens, SNU-16, 72 h
Description: Compounds of the present invention were also tested in a SNU16 Cancer Cell Line Proliferation Assay.
SNU16 cells were plated in 96-well clear bottom/white plate(Costar, Cat.No. 3610) at 5000 cells/well in 100 μl medium. Test compounds were prepared in a 10 mM DMSO stock solution and serially diluted into 9 concentrations by 3-fold dilution. 0.5 μl of each concentration of compound was added into the cell culture plates and DMSO as a control. The plates were incubated for 72 h at 37° C. and 5% CO2 incubator. 50 μl CellTiter-Glo reagent (Promega, G7572) was added into each well and then the plates were shaken gently for 10 min at room temperature. Luminescence was read on microplate reader (Molecular Devices, i3x), IC50 values were calculated using Prism 7 (GraphPad).

T1 sequence (P21802 22-821): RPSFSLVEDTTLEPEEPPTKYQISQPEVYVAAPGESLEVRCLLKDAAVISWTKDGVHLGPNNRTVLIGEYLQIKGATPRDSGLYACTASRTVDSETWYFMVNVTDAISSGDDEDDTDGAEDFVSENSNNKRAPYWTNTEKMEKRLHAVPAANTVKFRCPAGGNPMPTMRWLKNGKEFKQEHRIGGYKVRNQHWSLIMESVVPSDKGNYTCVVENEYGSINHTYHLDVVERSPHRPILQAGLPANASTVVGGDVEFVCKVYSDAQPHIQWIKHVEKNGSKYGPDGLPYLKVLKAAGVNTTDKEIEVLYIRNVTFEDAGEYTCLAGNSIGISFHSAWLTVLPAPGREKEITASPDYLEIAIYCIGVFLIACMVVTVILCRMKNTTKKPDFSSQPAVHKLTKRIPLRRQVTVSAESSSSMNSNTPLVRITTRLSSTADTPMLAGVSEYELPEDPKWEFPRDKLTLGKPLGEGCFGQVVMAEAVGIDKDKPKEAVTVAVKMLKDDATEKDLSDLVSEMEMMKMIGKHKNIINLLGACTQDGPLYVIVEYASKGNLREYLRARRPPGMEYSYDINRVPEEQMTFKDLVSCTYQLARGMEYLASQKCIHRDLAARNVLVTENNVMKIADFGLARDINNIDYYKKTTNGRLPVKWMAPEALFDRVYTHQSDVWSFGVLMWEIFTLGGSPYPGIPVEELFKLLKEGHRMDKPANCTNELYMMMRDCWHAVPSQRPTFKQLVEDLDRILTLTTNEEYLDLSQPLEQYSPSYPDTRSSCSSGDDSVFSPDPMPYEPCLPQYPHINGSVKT
T3 sequence (P22607 23-806): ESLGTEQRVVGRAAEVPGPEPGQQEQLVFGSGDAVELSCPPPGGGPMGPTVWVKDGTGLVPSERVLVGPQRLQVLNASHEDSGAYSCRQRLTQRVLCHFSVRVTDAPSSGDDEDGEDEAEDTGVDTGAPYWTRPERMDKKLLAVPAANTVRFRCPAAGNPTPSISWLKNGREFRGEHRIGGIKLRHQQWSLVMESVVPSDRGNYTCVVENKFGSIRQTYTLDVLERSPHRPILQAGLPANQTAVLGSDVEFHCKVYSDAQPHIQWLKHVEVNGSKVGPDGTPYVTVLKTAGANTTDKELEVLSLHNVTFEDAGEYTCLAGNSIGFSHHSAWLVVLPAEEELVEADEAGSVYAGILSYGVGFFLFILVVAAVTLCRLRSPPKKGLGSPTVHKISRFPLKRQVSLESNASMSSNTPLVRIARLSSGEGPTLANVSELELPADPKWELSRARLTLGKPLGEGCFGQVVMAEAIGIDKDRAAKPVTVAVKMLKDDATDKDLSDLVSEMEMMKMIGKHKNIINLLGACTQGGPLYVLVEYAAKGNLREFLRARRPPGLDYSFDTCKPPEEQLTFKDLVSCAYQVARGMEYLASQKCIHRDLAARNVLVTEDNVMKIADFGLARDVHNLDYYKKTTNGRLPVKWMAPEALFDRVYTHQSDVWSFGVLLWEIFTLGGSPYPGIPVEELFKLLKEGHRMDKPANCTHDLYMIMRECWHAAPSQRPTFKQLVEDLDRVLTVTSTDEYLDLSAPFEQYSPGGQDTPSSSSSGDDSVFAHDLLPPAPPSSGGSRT
T2 sequence (P11362 22-822): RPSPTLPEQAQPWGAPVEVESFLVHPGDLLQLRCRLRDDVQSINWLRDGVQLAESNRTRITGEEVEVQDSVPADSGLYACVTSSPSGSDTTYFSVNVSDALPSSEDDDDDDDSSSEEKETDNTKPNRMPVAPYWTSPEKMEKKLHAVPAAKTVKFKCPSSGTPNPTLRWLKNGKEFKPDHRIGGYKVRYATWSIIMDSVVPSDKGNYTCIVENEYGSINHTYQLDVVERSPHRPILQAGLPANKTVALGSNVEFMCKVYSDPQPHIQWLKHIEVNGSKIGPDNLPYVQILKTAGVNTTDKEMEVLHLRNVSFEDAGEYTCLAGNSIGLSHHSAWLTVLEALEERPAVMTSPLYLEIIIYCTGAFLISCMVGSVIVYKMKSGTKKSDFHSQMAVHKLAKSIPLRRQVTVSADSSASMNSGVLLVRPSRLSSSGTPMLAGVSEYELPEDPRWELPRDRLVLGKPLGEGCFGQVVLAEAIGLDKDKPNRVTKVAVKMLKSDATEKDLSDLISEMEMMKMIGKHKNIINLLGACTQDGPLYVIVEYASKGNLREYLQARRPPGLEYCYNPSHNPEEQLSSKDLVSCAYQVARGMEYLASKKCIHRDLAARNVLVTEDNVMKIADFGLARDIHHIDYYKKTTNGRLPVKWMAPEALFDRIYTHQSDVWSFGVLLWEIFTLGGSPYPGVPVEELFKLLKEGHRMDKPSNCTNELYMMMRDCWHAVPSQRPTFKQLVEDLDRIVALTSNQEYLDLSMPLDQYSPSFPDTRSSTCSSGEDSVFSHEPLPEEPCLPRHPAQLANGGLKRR

IC50 [1] | IC50 [4] | Structure (SMILES) | Selectivity FGFR1/FGFR2 [2] | Selectivity FGFR3/FGFR2 [3]
< 5 nM | ≤ 10 nM | C=CC(=O)Nc1ccc(-c2c(-c3ccc(C(=O)NC4CCC4)c(OC)c3)c3c(N)ncc(C#N)c3n2CCOC)cc1 [Compound 59, 4-(2-(4-acrylamidophenyl)-4-amino-7-cyano-1-(2-methoxyethyl)-1H-pyrrolo[3,2-c]pyridin-3-yl)-N-cyclobutyl-2-methoxybenzamide] | A (Selectivity of FGFR1/FGFR2 less than 500 but greater than or equal to 300) | A (Selectivity of FGFR3/FGFR2 less than 150 but greater than or equal to 100)
< 5 nM | ≤ 10 nM | C=CC(=O)Nc1ccc(-c2c(-c3ccc(C(=O)NC4CCC4)cc3)c3c(N)ncc(C#N)c3n2C)cc1 [Compound 65, 4-(2-(4-acrylamidophenyl)-4-amino-7-cyano-1-methyl-1H-pyrrolo[3,2-c]pyridin-3-yl)-N-cyclobutylbenzamide] | A (Selectivity of FGFR1/FGFR2 less than 500 but greater than or equal to 300) | A+ (Selectivity of FGFR3/FGFR2 greater or equal to 150)
< 5 nM | ≤ 10 nM | C=CC(=O)Nc1ccc(-c2c(-c3ccc(Oc4nccc(C)n4)cc3)c3c(N)ncc(C#N)c3n2C)cc1 [Compound 69, N-(4-(4-amino-7-cyano-1-methyl-3-(4-((4-methylpyrimidin-2-yl)oxy)phenyl)-1H-pyrrolo[3,2-c]pyridin-2-yl)phenyl)acrylamide] | A (Selectivity of FGFR1/FGFR2 less than 500 but greater than or equal to 300) | B (Selectivity of FGFR3/FGFR2 less than 100 but greater than or equal to 25)
> 10 nM | ≤ 10 nM | C=CC(=O)Nc1ccc(-c2nn3ncnc(N)c3c2-c2ccc(C(=O)NC3CCC3)c(C)c2)cc1 [Compound 74, 4-(6-(4-acrylamidophenyl)-4-aminopyrazolo[5,1-f][1,2,4]triazin-5-yl)-N-cyclobutyl-2-methylbenzamide] | C (Selectivity of FGFR1/FGFR2 less than 200 but greater than or equal to 100) | A+ (Selectivity of FGFR3/FGFR2 greater or equal to 150)
< 5 nM | ≤ 10 nM | C=CC(=O)Nc1ccc(-c2nn3ncnc(N)c3c2-c2ccc(C(=O)NCC(F)(F)F)c(OC)c2)c(F)c1 [Compound 86, 4-(6-(4-acrylamido-2-fluorophenyl)-4-aminopyrazolo[5,1-f] [1,2,4]triazin-5-yl)-2-methoxy-N-(2,2,2-trifluoroethyl)benzamide] | A+ (Selectivity of FGFR1/FGFR2 greater or equal to 500) | B (Selectivity of FGFR3/FGFR2 less than 100 but greater than or equal to 25)
< 5 nM | 10 to 50 nM | C=CC(=O)Nc1ccc(-c2nn3ncnc(N)c3c2-c2ccc(C(=O)NCC(F)(F)F)c(OC)c2)cn1 [Compound 90, 4-(6-(6-acrylamidopyridin-3-yl)-4-aminopyrazolo[5,1-f] [1,2,4]triazin-5-yl)-2-methoxy-N-(2,2,2-trifluoroethyl)benzamide] | A (Selectivity of FGFR1/FGFR2 less than 500 but greater than or equal to 300) | B (Selectivity of FGFR3/FGFR2 less than 100 but greater than or equal to 25)
< 5 nM | ≤ 10 nM | C=CC(=O)Nc1ccc(-c2nn3ncnc(N)c3c2-c2ccc(C(=O)NC3CC(F)(F)C3)c(OC)c2)cc1 [Compound 98, 4-(6-(4-acrylamidophenyl)-4-aminopyrazolo[5,1-f] [1,2,4]triazin-5-yl)-N-(3,3-difluorocyclobutyl)-2-methoxybenzamide] | A+ (Selectivity of FGFR1/FGFR2 greater or equal to 500) | A+ (Selectivity of FGFR3/FGFR2 greater or equal to 150)
< 5 nM | ≤ 10 nM | C=C(F)C(=O)Nc1ccc(-c2nn3ncnc(N)c3c2-c2ccc(C(=O)NCC(F)(F)F)c(OC)c2)c(F)c1 [Compound 100, 4-(4-amino-6-(2-fluoro-4-(2-fluoroacrylamido)phenyl)pyrazolo[5,1-f][1,2,4]triazin-5-yl)-2-methoxy-N-(2,2,2-trifluoroethyl)benzamide] | A+ (Selectivity of FGFR1/FGFR2 greater or equal to 500) | A+ (Selectivity of FGFR3/FGFR2 greater or equal to 150)

The remaining lines, values behind:

Structure (SMILES) | IC50 [1] | IC50 [4] | Selectivity FGFR1/FGFR2 [2] | Selectivity FGFR3/FGFR2 [3]
C=CC(=O)Nc1ccc(-c2nn3ncnc(N)c3c2-c2ccc(C(=O)NCC)c(OC)c2)cc1 [Compound 60, 4-(6-(4-acrylamidophenyl)-4-aminopyrazolo[5,1-f] [1,2,4]triazin-5-yl)-N-ethyl-2-methoxybenzamide] | 5 to 10 nM | ≤ 10 nM | A+ (Selectivity of FGFR1/FGFR2 greater or equal to 500) | A (Selectivity of FGFR3/FGFR2 less than 150 but greater than or equal to 100)
C=CC(=O)Nc1ccc(-c2nn3ncnc(N)c3c2-c2ccc(C(=O)NCC(C)C)c(OC)c2)cc1 [Compound 81, 4-(6-(4-acrylamidophenyl)-4-aminopyrazolo[5,1-f] [1,2,4]triazin-5-yl)-N-isobutyl-2-methoxybenzamide] | < 5 nM | ≤ 10 nM | A+ (Selectivity of FGFR1/FGFR2 greater or equal to 500) | A+ (Selectivity of FGFR3/FGFR2 greater or equal to 150)
C=CC(=O)Nc1ccc(-c2nn3ncnc(N)c3c2-c2ccc(C(=O)NCC(F)(F)F)c(OC)c2)c(OC)c1 [Compound 85, 4-(6-(4-acrylamido-2-methoxyphenyl)-4-aminopyrazolo[5,1-f] [1,2,4]triazin-5-yl)-2-methoxy-N-(2,2,2-trifluoroethyl)benzamide] | < 5 nM | ≤ 10 nM | A+ (Selectivity of FGFR1/FGFR2 greater or equal to 500) | A+ (Selectivity of FGFR3/FGFR2 greater or equal to 150)
C=CC(=O)Nc1ccc(-c2nn3ncnc(N)c3c2-c2ccc(C(=O)NC3CC3)c(OC)c2)cc1 [Compound 89, 4-(6-(4-acrylamidophenyl)-4-aminopyrazolo[5,1-f] [1,2,4]triazin-5-yl)-N-cyclopropyl-2-methoxybenzamide] | < 5 nM | ≤ 10 nM | A+ (Selectivity of FGFR1/FGFR2 greater or equal to 500) | A+ (Selectivity of FGFR3/FGFR2 greater or equal to 150)
C=C(F)C(=O)Nc1ccc(-c2nn3ncnc(N)c3c2-c2ccc(C(=O)NC3CCCC3)c(OC)c2)cc1 [Compound 93, 4-(4-amino-6-(4-(2-fluoroacrylamido)phe-nyl)pyrazolo[5,1-f] [1,2,4]triazin-5-yl)-N-cyclopentyl-2-methoxybenzamide] | > 10 nM | ≤ 10 nM | A+ (Selectivity of FGFR1/FGFR2 greater or equal to 500) | A+ (Selectivity of FGFR3/FGFR2 greater or equal to 150)
C=C(F)C(=O)Nc1ccc(-c2nn3ncnc(N)c3c2-c2ccc(C(=O)NC3CCC3)c(OC)c2)cc1 [Compound 95, 4-(4-amino-6-(4-(2-fluoroacrylamido)phe-nyl)pyrazolo[5,1-f][1,2,4]triazin-5-yl)-N-cyclobutyl-2-methoxybenzamide] | > 10 nM | ≤ 10 nM | A+ (Selectivity of FGFR1/FGFR2 greater or equal to 500) | A+ (Selectivity of FGFR3/FGFR2 greater or equal to 150)
C=C(F)C(=O)Nc1ccc(-c2c(-c3ccc(C(=O)NC4CCC4)cc3)c3c(N)ncc(C#N)c3n2C)cc1 [Compound 97, 4-(4-amino-7-cyano-2-(4-(2-fluoroacrylamido)phe-nyl)-1-methyl-1H-pyrrolo[3,2-c]pyridin-3-yl)-N-cyclobutylbenzamide] | 5 to 10 nM | ≤ 10 nM | A+ (Selectivity of FGFR1/FGFR2 greater or equal to 500) | A+ (Selectivity of FGFR3/FGFR2 greater or equal to 150)
